From patent US20090062255A1, “TUMOR-TARGETING EVALUATION METHODOLOGY AND COMPOUNDS RELATED THERETO” (THALLION PHARMACEUTICALS INC., priority 2007, published 2009)
Several values for one entry are separate records, joined by “and”; a condition that tells them apart may be missing. Equal values may be shown once.

What was measured:
human 5-LO = molecular target: T1, human 5-LO (Homo sapiens, UniProt P09917); experiment: 5-LO inhibition assay (EIA quantitation of LTB4); type: biochemical; conditions: 4 μM compound, 1% DMSO; read-out: Percentage of inhibition or binding activity, 5-LO (4 μM)
T1 construct: Human peripheral blood […] (PMNs) were isolated through a Ficoll-Paque density gradient; endogenous in cells; host or cells: human peripheral blood mononuclear cells (PBML/PMNs)
T1 sequence (P09917 1-674): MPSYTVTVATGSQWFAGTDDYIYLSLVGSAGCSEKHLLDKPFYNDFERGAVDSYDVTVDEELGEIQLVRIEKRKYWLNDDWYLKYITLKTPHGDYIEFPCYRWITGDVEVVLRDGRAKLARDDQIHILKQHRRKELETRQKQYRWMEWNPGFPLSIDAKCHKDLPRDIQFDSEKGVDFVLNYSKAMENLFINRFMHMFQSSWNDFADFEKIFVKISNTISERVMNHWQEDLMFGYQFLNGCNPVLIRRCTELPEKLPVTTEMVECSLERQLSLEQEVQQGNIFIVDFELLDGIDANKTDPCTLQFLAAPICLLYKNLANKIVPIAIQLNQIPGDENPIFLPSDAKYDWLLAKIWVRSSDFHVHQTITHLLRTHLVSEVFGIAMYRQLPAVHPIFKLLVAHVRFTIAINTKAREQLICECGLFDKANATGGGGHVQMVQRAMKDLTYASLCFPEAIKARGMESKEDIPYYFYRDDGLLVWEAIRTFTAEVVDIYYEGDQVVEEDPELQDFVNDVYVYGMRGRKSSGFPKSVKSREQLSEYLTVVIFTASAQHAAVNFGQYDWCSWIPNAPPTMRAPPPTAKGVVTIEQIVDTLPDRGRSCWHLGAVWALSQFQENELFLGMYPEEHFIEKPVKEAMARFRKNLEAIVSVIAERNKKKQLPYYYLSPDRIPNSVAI
Description: 5-Lipoxygenase (5-LO) catalyzes the oxidative metabolism of arachidonic acid to 5-hydroxyeicosatetraenoic acid (5-HETE), the initial reaction leading to formation of leukotrienes.
Human peripheral blood […] (PMNs) were isolated through a Ficoll-Paque density gradient. PMNs were stimulated by addition A23187 (30 μM final concentration). […] Following incubation, samples were neutralized with NaOH and centrifuged. Leukotriene B4 content was measured in the supernatant using an Enzyme Immunosorbant Assay (EIA) assay. The experiment was performed in triplicate.
The procedures used are based on the respective references mentioned above and the conditions are summarized in Tables 16 (enzyme assays) and 17 (radioligand receptor assays).
(§1) Binding Assays were done at constant concentration of the compound, in 1% DMSO as vehicle, and are specified below each enzyme/receptor type in Table 18. The results are expressed in Table 18 as percentage inhibition. Significance was obtained when a result was ≧50% binding or inhibition (underlined).

[1] = tested on: Acyl CoA-Cholesterol Acyltransferase (ACAT); experiment: ACAT enzyme assay; type: biochemical, rat; conditions: 10 μM compound, 1% DMSO
Excerpt: Acyl CoA-Cholesterol Acyltransferase (ACAT) converts cholesterol to cholesteryl esters and is involved in the development of artherioscerosis.
(§2) The procedures used were based on known assays: ACAT (from rat; Ref: Largis et al (1989), J. Lipid. Res., vol 30, 681-689), COX-2 (human; Ref: Riendeau et al (1997), Can. J. Physiol. Pharmacol., vol 75, 1088-1095 and Warner et al (1999), Pro. Natl. Acad. Sci. USA, vol 96, 7563-7568), 5-LO (human; Ref: Carter et al (1991), J. Pharmacol. Exp. Ther., vol 256, no 3, 929-937, and Safayhi et al (2000), Planta Medica, vol 66, 110-113), PBR (from rat; Le Fur et al (1983), Life Sci. USA, vol 33, 449-457), CysLT1 (human; Martin et al (2001), Biochem. Pharmacol., vol 62, no 9, 1193-1200) and CBR (from rat; Damm et al (1978), Res. Comm. Chem. Pathol. Pharmacol., vol 22, 597-600 and Speth et al (1979), Life Sci., vol 24, 351-357).
(§3) Binding assays were done for each of Compounds 1-12 and 46 using ACAT, COX-2, 5-LO, PBR and CysLT1 enzymes. The procedures used are based on the respective references mentioned above and the conditions are summarized in Tables 16 (enzyme assays) and 17 (radioligand receptor assays).
as §1

[2] = molecular target: T2, peripheral benzodiazepine receptor (PBR) (Rattus norvegicus, UniProt P16257); experiment: PBR radioligand binding assay ([3H]PK-11195, rat heart); conditions: for inhibition at 1 µM: 1 μM compound, 1% DMSO, read-out: Percentage of inhibition or binding activity, PBR (1 μM)
T2 construct: CBR and PBR were obtained from rat brain and heart membrane-fractions, respectively; from tissue; host or cells: Wistar rat heart membranes
Excerpt: as §2, §3, §1
As Compound 1 was isolated from structural prediction through genetic analysis and activity identified through in vitro cytotoxic assays, its molecular target(s) were unknown at the time of discovery. Based on the structural characteristics of ECO-4601, we first investigated its binding affinity to the central (GABAA; CBR;) and peripheral (PBR) benzodiazepine receptors. The effect of ECO-4601 on CBR (GABAA) and PBR was initially evaluated in a radioligand-binding assay at MDS Pharma Services (Taipei, Tawain). CBR and PBR were obtained from rat brain and heart membrane-fractions, respectively. Displacement assays were done in the presence of 1 nM [^3H]-Flunitrazepam (CBR; GABAA) or 0.3 nM of [^3H]-PK11195 (PBR). ECO-4601 was tested at 0.01, 0.1, 0.5, 1, 5 and 10 μM. Non-specific binding was estimated in the presence of 10 μM diazepam (CBR) or 100 μM dipyrimadole (PBR) and assays were performed according to previous described methods (Damm et al Res Commun Chem Pathol Pharmacol 22, pp 597-600; Le Fur et al (1983) Life Science 33, pp 449-57). […] This contrats with current specific PBR ligands, which bind the PBR with nanomolar affinity yet their effect on cell proliferation, is in the micromolar range.

In the case of `CC(=O)Oc1cc(OC(C)=O)c2c(c1)N(CC=C(C)CCC=C(C)CCC=C(C)C)C(=O)c1cccc(O)c1N2` [Compound 9, 6,8-diacetoxy-10-farnesyl-4-hydroxy-5,10-dihydro-dibenzo[b,e][1,4]diazepin-11-one], the inhibition at 4 µM (human 5-LO) is reported as 96%, the “Percentage of inhibition or binding activity, ACAT (10 μM)” value [1] is reported as 77% and the inhibition at 1 µM [2] is reported as 32%.

In the case of `CC(=O)Oc1cc(O)c2c(c1)N(CC=C(C)CCC=C(C)CCC=C(C)C)C(=O)c1cccc(OC(C)=O)c1N2` [Compound 11, 4,8-diacetoxy-10-farnesyl-6-hydroxy-5,10-dihydro-dibenzo[b,e][1,4]diazepin-11-one], the inhibition at 4 µM (human 5-LO) is reported as 97%, the “Percentage of inhibition or binding activity, ACAT (10 μM)” value [1] is reported as 71% and the inhibition at 1 µM [2] is reported as 39%.

`COc1cc(O)cc2c1Nc1c(O)cccc1C(=O)N2C/C=C(\C)CC/C=C(\C)CCC=C(C)C` [Compound 5, 10-farnesyl-4,8-dihydroxy-6-methoxy-5,10-dihydro-dibenzo[b,e][1,4]diazepin-11-one] was tested, and the inhibition at 4 µM (human 5-LO) was 98%, the “Percentage of inhibition or binding activity, ACAT (10 μM)” value [1] was 60% and the inhibition at 1 µM [2] was 68%.

With `COc1cccc2c1Nc1c(OC)cc(O)cc1N(CC=C(C)CCC=C(C)CCC=C(C)C)C2=O` [Compound 7, 10-farnesyl-8-hydroxy-4,6-dimethoxy-5,10-dihydro-dibenzo[b,e][1,4]diazepin-11-one] the inhibition at 4 µM (human 5-LO) was 63%, the “Percentage of inhibition or binding activity, ACAT (10 μM)” value [1] was 95% and the inhibition at 1 µM [2] was 65%.

For `CC(=O)Oc1cc(OC(C)=O)c2c(c1)N(CC=C(C)CCC=C(C)CCC=C(C)C)C(=O)c1cccc(OC(C)=O)c1N2` [Compound 12, 4,6,8-triacetoxy-10-farnesyl-5,10-dihydro-dibenzo[b,e][1,4]diazepin-11-one], the inhibition at 4 µM (human 5-LO) was 86%, the “Percentage of inhibition or binding activity, ACAT (10 μM)” value [1] was 83% and the inhibition at 1 µM [2] was 39%.

`COc1cccc2c1Nc1c(O)cc(O)cc1N(C/C=C(\C)CC/C=C(\C)CCC=C(C)C)C2=O` [Compound 4, 10-farnesyl-6,8-dihydroxy-4-methoxy-5,10-dihydro-dibenzo[b,e][1,4]diazepin-11-one] was tested, and the inhibition at 4 µM (human 5-LO) was 98%, the “Percentage of inhibition or binding activity, ACAT (10 μM)” value [1] was 65% and the inhibition at 1 µM [2] was 92%.

With `CC(=O)Oc1cccc2c1Nc1c(OC(C)=O)cc(O)cc1N(CC=C(C)CCC=C(C)CCC=C(C)C)C2=O` [Compound 10, 4,6-diacetoxy-10-farnesyl-8-hydroxy-5,10-dihydro-dibenzo[b,e][1,4]diazepin-11-one] the inhibition at 4 µM (human 5-LO) was 97%, the “Percentage of inhibition or binding activity, ACAT (10 μM)” value [1] was 90% and the inhibition at 1 µM [2] was 86%.

In the case of `COc1cc(OC)c2c(c1)N(C/C=C(\C)CC/C=C(\C)CCC=C(C)C)C(=O)c1cccc(O)c1N2` [Compound 6, 10-farnesyl-4-hydroxy-6,8-dimethoxy-5,10-dihydro-dibenzo[b,e][1,4]diazepin-11-one], the inhibition at 4 µM (human 5-LO) is reported as 71%, the “Percentage of inhibition or binding activity, ACAT (10 μM)” value [1] is reported as 54% and the inhibition at 1 µM [2] is reported as 75%.

`COc1cc(OC)c2c(c1)N(CC=C(C)CCC=C(C)CCC=C(C)C)C(=O)c1cccc(OC)c1N2` [Compound 8, 10-farnesyl-4,6,8-trimethoxy-5,10-dihydro-dibenzo[b,e][1,4]diazepin-11-one] was tested, and the inhibition at 4 µM (human 5-LO) was -13%, the “Percentage of inhibition or binding activity, ACAT (10 μM)” value [1] was 40% and the inhibition at 1 µM [2] was 55%.

In the case of `CC(C)=CCC/C(C)=C/CC/C(C)=C/CN1C(=O)c2cccc(O)c2N(C)c2c(O)cc(O)cc21` [Compound 2, 10-farnesyl-4,6,8-trihydroxy-5-methyl-5,10-dihydro-dibenzo[b,e][1,4]diazepin-11-one], the inhibition at 4 µM (human 5-LO) is reported as 93%, the “Percentage of inhibition or binding activity, ACAT (10 μM)” value [1] is reported as 51% and the inhibition at 1 µM [2] is reported as 65%.

In the case of `CC(C)=CCC/C(C)=C/CC/C(C)=C/CN1C(=O)c2cccc(O)c2Nc2c(O)cc(O)cc21` [Compound 1, 10-farnesyl-4,6,8-trihydroxy-5,10-dihydrodibenzo[b,e][1,4]diazepin-11-one], the inhibition at 4 µM (human 5-LO) is reported as 99%, the “Percentage of inhibition or binding activity, ACAT (10 μM)” value [1] is reported as 90% and the inhibition at 1 µM [2] is reported as 80%. For the same compound, the IC50 ([2]; multiple dilutions, 0.3 nM [3H]-PK11195, rat heart, read-out: PBR IC50 (binding affinity)) was 291 nM and ~300 nM and the Ki ([2]; multiple dilutions, read-out: PBR inhibition constant (Ki)) was 257 nM.

In the case of `CC(C)=CCC/C(C)=C/CC/C(C)=C/CN1C(=O)c2cccc(O)c2N(Cc2ccccc2)c2c(O)cc(O)cc21` [Compound 3, 5-benzyl-10-farnesyl-4,6,8-trihydroxy-5,10-dihydro-dibenzo[b,e][1,4]diazepin-11-one], the inhibition at 4 µM (human 5-LO) is reported as 72%, the “Percentage of inhibition or binding activity, ACAT (10 μM)” value [1] is reported as 63% and the inhibition at 1 µM [2] is reported as 11%.

With `CC(C)CCCC(C)CCCC(C)CCN1C(=O)c2cccc(O)c2Nc2c(O)cc(O)cc21` (centres unmarked) [Compound 46, 10-(3,7,11-trimethyldodecyl)-4,6,8-trihydroxy-5,10-dihydro-dibenzo[b,e][1,4]diazepin-11-one] the inhibition at 4 µM (human 5-LO) was 65%, the “Percentage of inhibition or binding activity, ACAT (10 μM)” value [1] was 8% and the inhibition at 1 µM [2] was -1%.
